target: T1, human H1 receptor (Homo sapiens, UniProt P35367); assay: Human histamine H1 receptor binding assay; conditions: competition with 1.5 nM [pyridinyl-5-3H] Pyrilamine, crude membranes of CHO cells transfected with human H1 receptor; Ki from IC50 by Cheng-Prusoff
T1 construct: expressed in transfected cells; host or cells: CHO cells (crude membranes)
Protocol: Compounds of the present invention may be evaluated for binding to the histamine H1 receptor by a standard binding assay. […] Pyrilamine (˜30 Ci/mmol, Amersham TRK608) in the presence of varying concentrations of competing ligand. Non-specific binding is determined in the presence of excess (1 μM) doxepin. Bound and free ligand are separated by rapid vacuum filtration using a Packard 96-well cell harvester onto UniFilter GF/C filter plates (PerkinElmer) that has been pretreated with 1% polyethyleneimine. The filter plates are then washed with 600 μl phosphate buffered saline containing 0.01% (v/v) Triton-X100. Bound radioligand is determined by scintillation counting using a TopCount-NXT (Packard). Binding data is analyzed by nonlinear, least-squares curve fitting algorithms using GraphPad Prism (GraphPad Software, Inc. San Diego, Calif.) or ActivityBase (IDBS, Guildford, Surrey, UK).

T1 sequence (P35367 whole entry): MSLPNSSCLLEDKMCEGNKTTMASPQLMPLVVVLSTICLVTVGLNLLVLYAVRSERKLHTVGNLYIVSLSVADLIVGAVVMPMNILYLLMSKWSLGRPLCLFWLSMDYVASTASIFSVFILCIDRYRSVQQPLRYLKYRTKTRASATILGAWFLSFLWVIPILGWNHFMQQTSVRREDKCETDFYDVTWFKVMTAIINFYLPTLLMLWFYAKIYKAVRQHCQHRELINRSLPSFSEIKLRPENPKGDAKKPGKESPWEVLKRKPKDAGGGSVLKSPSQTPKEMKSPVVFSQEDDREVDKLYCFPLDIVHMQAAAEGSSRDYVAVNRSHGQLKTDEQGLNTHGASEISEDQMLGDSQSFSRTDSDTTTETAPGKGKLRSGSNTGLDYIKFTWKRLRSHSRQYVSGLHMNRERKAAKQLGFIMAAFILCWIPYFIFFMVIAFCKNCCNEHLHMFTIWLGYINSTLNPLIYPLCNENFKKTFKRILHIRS

Ki, ≤ 1000 nM:
CC(c1cscn1)c1c(CCN(C)C)sc2ccccc12 (stereo in doubt) [Compound 16-4, Dimethyl-{2-[3-((R)-1-thiazol-4-yl-ethyl)-benzo[b]thiophen-2-yl]-ethyl}-amine]
CN(C)CCc1sc2ccccc2c1Cc1ccc(F)cc1 [Compound 3-2, {2-[3-(4-Fluoro-benzyl)-benzo[b]thiophen-2-yl]-ethyl}-dimethyl-amine]
CN(C)CCc1sc2ccccc2c1C(C)(O)c1ccc(F)cc1 (stereo not shown) [Compound 3-3, 1-[2-(2-Dimethylamino-ethyl)-benzo[b]thiophen-3-yl]-1-(4-fluoro-phenyl)-ethanol]
CC(c1ccc(F)cc1)c1c(CCN(C)C)sc2ccccc12 (stereo not shown) [Compound 3-4, (2-{3-[1-(4-Fluoro-phenyl)-ethyl]-benzo[b]thiophen-2-yl}-ethyl)-dimethyl-amine]
Cc1ccc2c(C(C)c3ccccn3)c(CCN(C)C)sc2c1 (stereo not shown) [Compound 4-2, Dimethyl-{2-[6-methyl-3-(1-pyridin-2-yl-ethyl)-benzo[b]thiophen-2-yl]-ethyl}-amine]
Cc1ccc2c([C@@H](C)c3ccccn3)c(CCN(C)C)sc2c1 [Compound 4-3, Dimethyl-{2-[6-methyl-3-((R)-1-pyridin-2-yl-ethyl)-benzo[b]thiophen-2-yl]-ethyl}-amine]
C=C(c1ccccn1)c1c(CCN(C)C)sc2cc(C)ccc12 [Compound 4-6, Dimethyl-{2-[6-methyl-3-(1-pyridin-2-yl-vinyl)-benzo[b]thiophen-2-yl]-ethyl}-amine]
Cc1ccnc(C(C)c2c(CCN(C)C)sc3ccccc23)c1 (stereo not shown) [Compound 5-3, Dimethyl-(2-{3-[1-(4-methyl-pyridin-2-yl)-ethyl]-benzo[b]thiophen-2-yl}-ethyl)-amine]
CN(C)CCc1sc2ccccc2c1C(C)(O)c1ccccn1 (stereo not shown) [Compound 6-1, 1-[2-(2-Dimethylamino-ethyl)-benzo[b]thiophen-3-yl]-1-pyridin-2-yl-ethanol]
C=C(c1ccccn1)c1c(CCN(C)C)sc2ccccc12 [Compound 6-2, Dimethyl-{2-[3-(1-pyridin-2-yl-vinyl)-benzo[b]thiophen-2-yl]-ethyl}-amine]
CC(c1ccccn1)c1c(CCN(C)C)sc2ccccc12 (stereo not shown) [Compound 6-3, Dimethyl-{2-[3-(1-pyridin-2-yl-ethyl)-benzo[b]thiophen-2-yl]-ethyl}-amine]
C=C(c1cccnc1)c1c(CCN(C)C)sc2ccccc12 [Compound 6-4, Dimethyl-{2-[3-(1-pyridin-3-yl-vinyl)-benzo[b]thiophen-2-yl]-ethyl}-amine]
C=C(c1ccncc1)c1c(CCN(C)C)sc2ccccc12 [Compound 6-5, Dimethyl-{2-[3-(1-pyridin-4-yl-vinyl)-benzo[b]thiophen-2-yl]-ethyl}-amine]
CC(c1ccncc1)c1c(CCN(C)C)sc2ccccc12 (stereo not shown) [Compound 6-7, Dimethyl-{2-[3-(1-pyridin-4-yl-ethyl)-benzo[b]thiophen-2-yl]-ethyl}-amine]
COc1cccnc1C(C)c1c(CCN(C)C)sc2ccccc12 (stereo not shown) [Compound 6-10, Dimethyl-(2-{3-[1-(3-methoxy-pyridin-2-yl)-ethyl]-benzo[b]thiophen-2-yl}-ethyl)-amine]
CC(c1ccc(F)cn1)c1c(CCN(C)C)sc2ccccc12 (stereo not shown) [Compound 7-3, (2-{3-[1-(5-Fluoro-pyridin-2-yl)-ethyl]-benzo[b]thiophen-2-yl}-ethyl)-dimethyl-amine]
C[C@@H](c1ccc(F)cn1)c1c(CCN(C)C)sc2ccccc12 [Compound 7-4, (2-{3-[(R)-1-(5-Fluoro-pyridin-2-yl)-ethyl]-benzo[b]thiophen-2-yl}-ethyl)-dimethyl-amine]
C[C@H](c1ccc(F)cn1)c1c(CCN(C)C)sc2ccccc12 [Compound 7-5, (2-{3-[(S)-1-(5-Fluoro-pyridin-2-yl)-ethyl]-benzo[b]thiophen-2-yl}-ethyl)-dimethyl-amine]
CC(c1nccs1)c1c(CCN(C)C)sc2ccccc12 (stereo not shown) [Compound 8-3, Dimethyl-{2-[3-(1-thiazol-2-yl-ethyl)-benzo[b]thiophen-2-yl]-ethyl}-amine]
CNCCc1sc2ccccc2c1C(C)c1ccccn1 (stereo not shown) [Compound 9-1, Methyl-{2-[3-(1-pyridin-2-yl-ethyl)-benzo[b]thiophen-2-yl]-ethyl}-amine]
CCCN(C)CCc1sc2ccccc2c1C(C)c1ccccn1 (stereo not shown) [Compound 9-2, Methyl-propyl-{2-[3-(1-pyridin-2-yl-ethyl)-benzo[b]thiophen-2-yl]-ethyl}-amine]
Cc1ccc(C(C)c2c(CCN(C)C)sc3ccccc23)cn1 (stereo not shown) [Compound 10-3, Dimethyl-(2-{3-[1-(6-methyl-pyridin-3-yl)-ethyl]-benzo[b]thiophen-2-yl}-ethyl)-amine]
CC(c1cnccn1)c1c(CCN(C)C)sc2ccccc12 (stereo not shown) [Compound 11-2, Dimethyl-{2-[3-(1-pyrazin-2-yl-ethyl)-benzo[b]thiophen-2-yl]-ethyl}-amine]
C[C@H](c1ccccn1)c1c(CCN(C)C)sc2ccccc12 [Compound 12-1, Dimethyl-{2-[3-((S)-1-pyridin-2-yl-ethyl)-benzo[b]thiophen-2-yl]-ethyl}-amine]
C[C@@H](c1ccccn1)c1c(CCN(C)C)sc2ccccc12 [Compound 12-2, Dimethyl-{2-[3-((R)-1-pyridin-2-yl-ethyl)-benzo[b]thiophen-2-yl]-ethyl}-amine]
CN(C)CCc1sc2ccccc2c1Cc1ccccn1 [Compound 13-3, Dimethyl-[2-(3-pyridin-2-ylmethyl-benzo[b]thiophen-2-yl)-ethyl]-amine]
CN(C)CCc1sc2ccccc2c1Cc1cncnc1 [Compound 13-4, Dimethyl-[2-(3-pyrimidin-5-ylmethyl-benzo[b]thiophen-2-yl)-ethyl]-amine]
CN(C)CCc1sc2ccccc2c1Cc1nccs1 [Compound 13-5, Dimethyl-[2-(3-thiazol-2-ylmethyl-benzo[b]thiophen-2-yl)-ethyl]-amine]
CN(C)CCc1sc2ccccc2c1Cc1cscn1 [Compound 13-6, Dimethyl-[2-(3-thiazol-4-ylmethyl-benzo[b]thiophen-2-yl)-ethyl]-amine]
COc1cccnc1Cc1c(CCN(C)C)sc2ccccc12 [Compound 13-7, {2-[3-(3-Methoxy-pyridin-2-ylmethyl)-benzo[b]thiophen-2-yl]-ethyl}-dimethyl-amine]
CN(C)CCc1sc2ccccc2c1Cc1cccc(O)n1 [Compound 13-8, 6-[2-(2-Dimethylamino-ethyl)-benzo[b]thiophen-3-ylmethyl]-pyridin-2-ol]
CN(C)CCc1sc2ccccc2c1Cc1cnccn1 [Compound 13-9, Dimethyl-[2-(3-pyrazin-2-ylmethyl-benzo[b]thiophen-2-yl)-ethyl]-amine]
CN(C)CCc1sc2ccccc2c1Cc1cncn1C [Compound 13-11, Dimethyl-{2-[3-(3-methyl-3H-imidazol-4-ylmethyl)-benzo[b]thiophen-2-yl]-ethyl}-amine]
CN(C)CCc1sc2ccccc2c1Cc1cnns1 [Compound 13-12, Dimethyl-[2-(3-[1,2,3]thiadiazol-5-ylmethyl-benzo[b]thiophen-2-yl)-ethyl]-amine]
Cc1cc(Cc2c(CCN(C)C)sc3ccccc23)n(C)n1 [Compound 13-13, {2-[3-(2,5-Dimethyl-2H-pyrazol-3-ylmethyl)-benzo[b]thiophen-2-yl]-ethyl}-dimethyl-amine]
CN(C)CCc1sc2ccccc2c1Cc1nn(C)cc1Cl [Compound 13-14, {2-[3-(4-Chloro-1-methyl-1H-pyrazol-3-ylmethyl)-benzo[b]thiophen-2-yl]-ethyl}-dimethyl-amine]
CN(C)CCc1sc2ccccc2c1Cc1nccn1C [Compound 13-15, Dimethyl-{2-[3-(1-methyl-1H-imidazol-2-ylmethyl)-benzo[b]thiophen-2-yl]-ethyl}-amine]
COc1cccc(C(C)c2c(CCN(C)C)sc3ccccc23)n1 (stereo not shown) [Compound 15-2, (2-{3-[1-(6-Methoxy-pyridin-2-yl)-ethyl]-benzo[b]thiophen-2-yl}-ethyl)-dimethyl-amine]
CC(c1cccc(F)n1)c1c(CCN(C)C)sc2ccccc12 (stereo not shown) [Compound 15-3]
COc1ncccc1C(C)c1c(CCN(C)C)sc2ccccc12 (stereo not shown) [Compound 15-4, Dimethyl-(2-{3-[1-(2-methoxy-pyridin-3-yl)-ethyl]-benzo[b]thiophen-2-yl}-ethyl)-amine]
COc1ncccc1[C@@H](C)c1c(CCN(C)C)sc2ccccc12 [Compound 15-5, Dimethyl-(2-{3-[(R)-1-(2-methoxy-pyridin-3-yl)-ethyl]-benzo[b]thiophen-2-yl}-ethyl)-amine]
COc1ncccc1[C@H](C)c1c(CCN(C)C)sc2ccccc12 [Compound 15-6, Dimethyl-(2-{3-[(S)-1-(2-methoxy-pyridin-3-yl)-ethyl]-benzo[b]thiophen-2-yl}-ethyl)-amine]
CC(c1cccnc1F)c1c(CCN(C)C)sc2ccccc12 (stereo not shown) [Compound 15-7, Dimethyl-(2-{3-[1-(2-fluoro-pyridin-3-yl)-ethyl]-benzo[b]thiophen-2-yl}-ethyl)-amine]

Reference: US7393865B2, “Sleep inducing compounds and methods relating thereto” (Neurocrine Biosciences, Inc., priority 2004, dated 2008)
